The record followed here is US8791155B2, “Chroman derivatives” (Edison Pharmaceuticals, Inc., priority 2003, dated 2014).

pEC50: −log10 of the molar value.

For this assay, the system named is dopaminergic neuronal cell line. The assay is described as follows: High glutamate-induced oxidative stress assay (HGOS). Format: cell-based. The following applies: Mus musculus; 30 mM glutamate, 16 hrs; read-out: EC50, protection against HGOS cell injury and cell death. In outline:
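Mouse dopaminergic cells were grown 72 h at 33° C, washed into HBSS, then exposed to compounds in glucose-free DMEM with 1 mM glucose and 30 mM glutamate for 16 h at 37° C. Viability was read as Cell Tracker Green fluorescence at 485/538 nm after 30 min of 5 μM dye loading.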

Regarding `CC1=NN(c2ccccc2)C(=O)C1C(CCC1(C)CCc2cc(O)c(C)c(C)c2O1)C1C(=O)N(c2ccccc2)N=C1C` (centres unmarked) [1-(6-Hydroxy-2,7,8-trimethyl-chroman-2-yl)-3-bis-(5-methyl-2-phenyl-2,4-dihydro-pyrazol-3-one-4-yl)-propane], the pEC50 is greater than 5.30.

Take `COC(=O)c1ccc(-c2c(O)c(C)c(C)c3c2CCC(C)(C)O3)cc1` [4-(6-Hydroxy-2,2,7,8-tetramethyl-chroman-5-yl)-benzoic acid methyl ester]: the pEC50 was greater than 5.30.

With `Cc1c(O)cc2c(c1C)OC(C)(CC/C=C1\SC(=O)NC1=O)CC2` (centres unmarked) [5-[3-(6-Hydroxy-2,7,8-trimethyl-chroman-2-yl)-propylidene]-thiazolidine-2,4-dione], the pEC50 was greater than 5.30.

For the compound `Cc1c(C)c2c(c(C)c1O)CCC(C)(C=C(Br)Br)O2` (centres unmarked) [2-(2,2-Dibromo-vinyl)-2,5,7,8-tetramethyl-chroman-6-ol], the negative logarithm of the EC50 (pEC50) is greater than 5.30.

`C=CCSCc1c(O)c(C)c(C)c2c1CCC(C)(C)O2` [5-Allylsulfanylmethyl-2,2,7,8-tetramethyl-chroman-6-ol]: the pEC50 was greater than 5.30.

Usually pEC50 stands for the negative decadic logarithm of the EC50, by convention in mol/L.
